The source made the active and inactive calls.
Legend:
[1] = molecular target: Mitogen-activated protein kinase kinase kinase 20 (Homo sapiens, UniProt Q9NYL2)
[2] = molecular target: T1, Phenylalanine--tRNA ligase beta subunit (Homo sapiens, UniProt Q9NSD9)
T1 sequence (Q9NSD9 whole entry): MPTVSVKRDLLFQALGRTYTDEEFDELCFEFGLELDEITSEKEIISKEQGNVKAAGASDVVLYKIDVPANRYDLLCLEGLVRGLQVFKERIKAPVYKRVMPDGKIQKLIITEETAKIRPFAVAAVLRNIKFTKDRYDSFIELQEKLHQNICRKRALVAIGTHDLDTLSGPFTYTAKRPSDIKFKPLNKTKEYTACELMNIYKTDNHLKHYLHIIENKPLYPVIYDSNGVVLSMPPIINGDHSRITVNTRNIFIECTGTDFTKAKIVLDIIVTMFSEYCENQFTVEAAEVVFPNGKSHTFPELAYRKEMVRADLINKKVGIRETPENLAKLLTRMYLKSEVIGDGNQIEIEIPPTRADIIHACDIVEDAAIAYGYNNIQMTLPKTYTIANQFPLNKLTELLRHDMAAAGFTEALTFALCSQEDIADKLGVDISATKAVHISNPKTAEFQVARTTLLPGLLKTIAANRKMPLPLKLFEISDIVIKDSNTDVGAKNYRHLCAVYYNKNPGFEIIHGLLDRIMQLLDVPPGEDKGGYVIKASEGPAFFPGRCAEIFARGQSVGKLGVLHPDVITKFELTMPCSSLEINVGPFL

Aurora kinase A = molecular target: T2, Aurora kinase A (Homo sapiens, UniProt O14965)
T2 sequence (O14965 whole entry): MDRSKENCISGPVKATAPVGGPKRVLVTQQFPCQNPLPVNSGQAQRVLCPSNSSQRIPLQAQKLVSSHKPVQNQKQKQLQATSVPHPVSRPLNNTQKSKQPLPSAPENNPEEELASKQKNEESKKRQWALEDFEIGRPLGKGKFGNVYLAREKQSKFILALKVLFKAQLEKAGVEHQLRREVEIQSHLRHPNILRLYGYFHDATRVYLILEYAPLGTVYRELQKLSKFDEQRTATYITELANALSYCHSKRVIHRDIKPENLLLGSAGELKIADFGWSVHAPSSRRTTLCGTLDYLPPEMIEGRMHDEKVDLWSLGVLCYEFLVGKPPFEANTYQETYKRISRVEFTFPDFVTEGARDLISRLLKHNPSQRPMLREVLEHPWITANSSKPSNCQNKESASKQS

[3] = molecular target: Adenylate kinase 2, mitochondrial (Homo sapiens, UniProt P54819)
[4] = molecular target: T3, Succinate--CoA ligase [ADP-forming] subunit beta, mitochondrial (Homo sapiens, UniProt Q9P2R7)
T3 sequence (Q9P2R7 whole entry): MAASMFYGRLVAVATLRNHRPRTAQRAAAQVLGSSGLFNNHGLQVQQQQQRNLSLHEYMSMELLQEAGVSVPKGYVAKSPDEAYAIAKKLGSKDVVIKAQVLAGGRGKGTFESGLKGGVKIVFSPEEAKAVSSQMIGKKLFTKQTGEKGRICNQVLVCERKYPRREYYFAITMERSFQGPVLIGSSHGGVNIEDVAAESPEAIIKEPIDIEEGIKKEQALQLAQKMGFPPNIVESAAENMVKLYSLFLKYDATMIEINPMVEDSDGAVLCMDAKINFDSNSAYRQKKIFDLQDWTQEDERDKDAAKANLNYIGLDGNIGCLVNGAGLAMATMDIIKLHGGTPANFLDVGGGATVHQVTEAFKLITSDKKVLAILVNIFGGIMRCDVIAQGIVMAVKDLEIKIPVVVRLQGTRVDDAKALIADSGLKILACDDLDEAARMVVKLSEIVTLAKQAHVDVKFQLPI

[5] = molecular target: T4, ATP-dependent RNA helicase DDX42 (Homo sapiens, UniProt Q86XP3)
T4 sequence (Q86XP3 whole entry): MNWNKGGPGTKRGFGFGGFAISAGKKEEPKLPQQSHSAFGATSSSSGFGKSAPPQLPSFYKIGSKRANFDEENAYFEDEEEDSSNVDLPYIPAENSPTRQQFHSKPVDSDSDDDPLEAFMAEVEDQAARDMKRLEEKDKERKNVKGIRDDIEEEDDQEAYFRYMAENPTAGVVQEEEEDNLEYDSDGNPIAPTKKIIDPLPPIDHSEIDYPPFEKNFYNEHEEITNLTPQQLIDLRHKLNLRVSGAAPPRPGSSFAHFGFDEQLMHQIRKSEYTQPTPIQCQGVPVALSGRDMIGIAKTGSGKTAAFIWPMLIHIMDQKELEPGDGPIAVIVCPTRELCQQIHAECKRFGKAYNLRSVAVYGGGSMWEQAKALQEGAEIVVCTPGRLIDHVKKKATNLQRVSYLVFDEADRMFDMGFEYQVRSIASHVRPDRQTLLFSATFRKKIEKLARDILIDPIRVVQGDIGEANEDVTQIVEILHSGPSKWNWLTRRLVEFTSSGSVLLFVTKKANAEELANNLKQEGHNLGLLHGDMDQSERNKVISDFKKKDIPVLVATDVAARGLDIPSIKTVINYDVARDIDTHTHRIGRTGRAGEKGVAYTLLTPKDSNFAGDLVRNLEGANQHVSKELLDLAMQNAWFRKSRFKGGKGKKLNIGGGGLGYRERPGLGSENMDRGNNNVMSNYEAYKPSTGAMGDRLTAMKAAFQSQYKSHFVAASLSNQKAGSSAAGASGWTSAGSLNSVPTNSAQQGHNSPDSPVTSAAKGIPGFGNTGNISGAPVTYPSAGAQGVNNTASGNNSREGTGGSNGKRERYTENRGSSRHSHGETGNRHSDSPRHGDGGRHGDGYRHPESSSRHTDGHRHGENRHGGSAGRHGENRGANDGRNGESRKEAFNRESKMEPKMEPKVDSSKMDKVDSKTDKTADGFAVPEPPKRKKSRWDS

[6] = molecular target: Structural maintenance of chromosomes protein 2 (Homo sapiens, UniProt O95347)
Sequence of Structural maintenance of chromosomes protein 2 (O95347 whole entry): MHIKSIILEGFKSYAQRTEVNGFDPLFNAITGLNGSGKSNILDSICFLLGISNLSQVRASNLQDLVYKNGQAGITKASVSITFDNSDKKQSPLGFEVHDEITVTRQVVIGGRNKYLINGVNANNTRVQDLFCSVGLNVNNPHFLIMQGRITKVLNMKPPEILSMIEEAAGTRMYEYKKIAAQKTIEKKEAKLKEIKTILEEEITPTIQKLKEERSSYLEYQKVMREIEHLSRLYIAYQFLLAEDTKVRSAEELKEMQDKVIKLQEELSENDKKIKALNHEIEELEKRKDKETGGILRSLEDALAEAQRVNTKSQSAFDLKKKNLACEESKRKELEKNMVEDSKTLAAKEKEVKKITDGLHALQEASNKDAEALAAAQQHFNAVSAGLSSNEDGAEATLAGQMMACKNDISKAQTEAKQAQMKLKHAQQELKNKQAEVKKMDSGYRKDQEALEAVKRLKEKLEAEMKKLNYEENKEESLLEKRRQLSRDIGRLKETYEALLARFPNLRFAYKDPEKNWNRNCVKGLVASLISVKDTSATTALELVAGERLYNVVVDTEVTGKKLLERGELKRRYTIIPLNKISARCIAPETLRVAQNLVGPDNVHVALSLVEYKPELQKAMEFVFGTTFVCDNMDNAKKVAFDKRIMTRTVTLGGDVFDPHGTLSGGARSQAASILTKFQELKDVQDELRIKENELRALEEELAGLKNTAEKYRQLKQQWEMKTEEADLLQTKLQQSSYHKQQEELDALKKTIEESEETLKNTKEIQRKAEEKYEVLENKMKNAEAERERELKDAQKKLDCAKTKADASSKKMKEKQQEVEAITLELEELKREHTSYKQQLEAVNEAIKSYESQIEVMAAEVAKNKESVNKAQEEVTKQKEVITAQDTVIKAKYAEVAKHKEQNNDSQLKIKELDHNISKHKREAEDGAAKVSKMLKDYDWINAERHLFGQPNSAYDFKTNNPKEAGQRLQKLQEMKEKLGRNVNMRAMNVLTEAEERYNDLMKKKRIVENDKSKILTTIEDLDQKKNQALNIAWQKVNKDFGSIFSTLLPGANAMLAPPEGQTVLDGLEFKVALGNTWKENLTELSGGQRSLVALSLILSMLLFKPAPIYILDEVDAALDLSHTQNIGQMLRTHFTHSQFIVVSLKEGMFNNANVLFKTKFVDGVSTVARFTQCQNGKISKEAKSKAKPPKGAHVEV

[7] = molecular target: T5, Electron transfer flavoprotein subunit beta (Homo sapiens, UniProt P38117)
T5 sequence (P38117 whole entry): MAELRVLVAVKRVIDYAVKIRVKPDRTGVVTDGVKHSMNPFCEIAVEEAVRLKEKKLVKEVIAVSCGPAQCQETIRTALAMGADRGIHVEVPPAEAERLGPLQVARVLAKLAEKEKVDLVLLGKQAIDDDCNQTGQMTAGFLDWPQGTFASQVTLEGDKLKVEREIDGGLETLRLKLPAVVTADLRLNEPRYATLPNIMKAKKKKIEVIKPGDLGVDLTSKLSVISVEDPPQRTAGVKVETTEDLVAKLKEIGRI
Also: in the data inactive means no Kd found up to 30 µM.

Sequence of Mitogen-activated protein kinase kinase kinase 20 (Q9NYL2 whole entry): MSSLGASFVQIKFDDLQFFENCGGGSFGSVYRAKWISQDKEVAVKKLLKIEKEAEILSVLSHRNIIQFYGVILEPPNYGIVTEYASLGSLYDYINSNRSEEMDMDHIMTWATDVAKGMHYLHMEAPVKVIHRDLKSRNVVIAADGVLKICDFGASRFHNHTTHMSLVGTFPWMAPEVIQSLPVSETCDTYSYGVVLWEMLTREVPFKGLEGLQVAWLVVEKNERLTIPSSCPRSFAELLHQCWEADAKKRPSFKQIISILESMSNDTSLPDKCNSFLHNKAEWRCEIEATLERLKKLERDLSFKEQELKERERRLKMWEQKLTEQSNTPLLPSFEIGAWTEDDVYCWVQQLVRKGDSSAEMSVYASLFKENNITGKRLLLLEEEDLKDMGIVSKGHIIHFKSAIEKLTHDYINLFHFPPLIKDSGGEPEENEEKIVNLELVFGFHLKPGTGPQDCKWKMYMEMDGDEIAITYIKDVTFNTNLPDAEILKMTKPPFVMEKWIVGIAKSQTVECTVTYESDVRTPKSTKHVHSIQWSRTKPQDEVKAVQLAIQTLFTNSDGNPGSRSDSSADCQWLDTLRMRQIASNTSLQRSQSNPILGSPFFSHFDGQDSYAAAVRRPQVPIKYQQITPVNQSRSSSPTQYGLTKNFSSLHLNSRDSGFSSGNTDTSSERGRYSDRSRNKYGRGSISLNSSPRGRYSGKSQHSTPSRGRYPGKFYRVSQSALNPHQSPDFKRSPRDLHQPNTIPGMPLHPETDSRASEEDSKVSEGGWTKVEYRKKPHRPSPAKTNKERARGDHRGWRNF

Kd [1] | Kd [2] | Kd (Aurora kinase A) | Kd [3] | Kd [4] | Kd [5] | Kd [6] | Kd [7] | Compound
> 30 µM (inactive) | > 30 µM (inactive) | > 30 µM (inactive) | > 30 µM (inactive) | > 30 µM (inactive) | > 30 µM (inactive) | > 30 µM (inactive) | > 30 µM (inactive) | COc1ccc2c(OCc3nnc4ccc(-c5ccccc5)nn34)ccnc2c1 [AMG-208]
> 30 µM (inactive) | > 30 µM (inactive) | > 30 µM (inactive) | > 30 µM (inactive) | > 30 µM (inactive) | > 30 µM (inactive) | > 30 µM (inactive) | > 30 µM (inactive) | CCOc1ccn(-c2ccc(F)cc2)c(=O)c1C(=O)Nc1ccc(Oc2ccnc(N)c2Cl)c(F)c1 [BMS-777607]
> 30 µM (inactive) | > 30 µM (inactive) | > 30 µM (inactive) | > 30 µM (inactive) | > 30 µM (inactive) | > 30 µM (inactive) | > 30 µM (inactive) | > 30 µM (inactive) | COc1cc2ncnc3c2cc1OCCCCCN(C)Cc1ccc(Br)cc1N3 [JNJ-26483327]

The remaining lines, values behind:

Compound | Kd [1] | Kd [2] | Kd (Aurora kinase A) | Kd [3] | Kd [4] | Kd [5] | Kd [6] | Kd [7]
Cc1c(NC(=O)OC[C@@H]2COCCN2)cn2ncnc(Nc3ccc4c(cnn4Cc4cccc(F)c4)c3)c12 [AC-480] | > 30 µM (inactive) | > 30 µM (inactive) | > 30 µM (inactive) | > 30 µM (inactive) | > 30 µM (inactive) | > 30 µM (inactive) | > 30 µM (inactive) | > 30 µM (inactive)
C=CCn1c(=O)c2cnc(Nc3ccc(N4CCN(C)CC4)cc3)nc2n1-c1cccc(C(C)(C)O)n1 [ADAVOSERTIB] | > 30 µM (inactive) | > 30 µM (inactive) | > 30 µM (inactive) | > 30 µM (inactive) | > 30 µM (inactive) | > 30 µM (inactive) | > 30 µM (inactive) | > 30 µM (inactive)
CCc1cc2c(cc1N1CCC(N3CCOCC3)CC1)C(C)(C)c1[nH]c3cc(C#N)ccc3c1C2=O [ALECTINIB] | > 30 µM (inactive) | > 30 µM (inactive) | > 30 µM (inactive) | > 30 µM (inactive) | > 30 µM (inactive) | > 30 µM (inactive) | > 30 µM (inactive) | > 30 µM (inactive)
S=C(NCc1ccc2c(c1)OCO2)N1CCN(c2ncnc3c2oc2ccccc23)CC1 [AMUVATINIB] | > 30 µM (inactive) | > 30 µM (inactive) | > 30 µM (inactive) | > 30 µM (inactive) | > 30 µM (inactive) | > 30 µM (inactive) | > 30 µM (inactive) | > 30 µM (inactive)
NC[C@@](O)(c1ccc(Cl)cc1)c1ccc(-c2cn[nH]c2)cc1 [AT-13148] | > 30 µM (inactive) | > 30 µM (inactive) | > 30 µM (inactive) | > 30 µM (inactive) | > 30 µM (inactive) | > 30 µM (inactive) | > 30 µM (inactive) | > 30 µM (inactive)
COc1ccc(-c2ccc3ncc4c(c3c2)n(-c2ccc(N3CCNCC3)c(C(F)(F)F)c2)c(=O)n4C)cn1 [BGT-226 FREE BASE] | > 30 µM (inactive) | > 30 µM (inactive) | > 30 µM (inactive) | > 30 µM (inactive) | > 30 µM (inactive) | > 30 µM (inactive) | > 30 µM (inactive) | > 30 µM (inactive)
CC1(COc2ccc3c(c2)ncn3-c2ccc3cccc(N4CCC(N)CC4)c3n2)COC1 [CRENOLANIB] | > 30 µM (inactive) | > 30 µM (inactive) | > 30 µM (inactive) | > 30 µM (inactive) | 0.007 µM | > 30 µM (inactive) | > 30 µM (inactive) | 0.012 µM
COc1cc2ncnc(Nc3ccc(F)c(Cl)c3)c2cc1NC(=O)/C=C/CN1CCCCC1 [DACOMITINIB ANHYDROUS] | > 30 µM (inactive) | > 30 µM (inactive) | > 30 µM (inactive) | > 30 µM (inactive) | > 30 µM (inactive) | > 30 µM (inactive) | > 30 µM (inactive) | > 30 µM (inactive)
Cn1c(=O)n(-c2ccc(C(C)(C)C#N)cc2)c2c3cc(-c4cnc5ccccc5c4)ccc3ncc21 [DACTOLISIB] | > 30 µM (inactive) | > 30 µM (inactive) | – | > 30 µM (inactive) | > 30 µM (inactive) | > 30 µM (inactive) | > 30 µM (inactive) | > 30 µM (inactive)
O=S(=O)(c1cccc2cnccc12)N1CCCNCC1 [FASUDIL] | > 30 µM (inactive) | > 30 µM (inactive) | > 30 µM (inactive) | > 30 µM (inactive) | > 30 µM (inactive) | > 30 µM (inactive) | > 30 µM (inactive) | > 30 µM (inactive)
O=S(=O)(c1cccc2c(O)nccc12)N1CCCNCC1 [HYDROXYFASUDIL] | > 30 µM (inactive) | > 30 µM (inactive) | > 30 µM (inactive) | > 30 µM (inactive) | > 30 µM (inactive) | > 30 µM (inactive) | > 30 µM (inactive) | > 30 µM (inactive)
C#Cc1cccc(Nc2ncnc3cc4c(cc23)OCCOCCOCCO4)c1 [ICOTINIB] | > 30 µM (inactive) | > 30 µM (inactive) | > 30 µM (inactive) | > 30 µM (inactive) | > 30 µM (inactive) | > 30 µM (inactive) | > 30 µM (inactive) | > 30 µM (inactive)
O=C(NOC[C@H](O)CO)c1ccc(F)c(F)c1Nc1ccc(I)cc1F [MIRDAMETINIB] | > 30 µM (inactive) | > 30 µM (inactive) | > 30 µM (inactive) | > 30 µM (inactive) | – | > 30 µM (inactive) | > 30 µM (inactive) | > 30 µM (inactive)
N#CCNC(=O)c1ccc(-c2ccnc(Nc3ccc(N4CCOCC4)cc3)n2)cc1 [MOMELOTINIB] | – | > 30 µM (inactive) | > 30 µM (inactive) | > 30 µM (inactive) | > 30 µM (inactive) | > 30 µM (inactive) | > 30 µM (inactive) | > 30 µM (inactive)
